Test [1] addresses T1, human GIPR (Homo sapiens, UniProt P48546).
T1 construct: expressed in transfected cells; crude membranes
T1 sequence (P48546 22-466): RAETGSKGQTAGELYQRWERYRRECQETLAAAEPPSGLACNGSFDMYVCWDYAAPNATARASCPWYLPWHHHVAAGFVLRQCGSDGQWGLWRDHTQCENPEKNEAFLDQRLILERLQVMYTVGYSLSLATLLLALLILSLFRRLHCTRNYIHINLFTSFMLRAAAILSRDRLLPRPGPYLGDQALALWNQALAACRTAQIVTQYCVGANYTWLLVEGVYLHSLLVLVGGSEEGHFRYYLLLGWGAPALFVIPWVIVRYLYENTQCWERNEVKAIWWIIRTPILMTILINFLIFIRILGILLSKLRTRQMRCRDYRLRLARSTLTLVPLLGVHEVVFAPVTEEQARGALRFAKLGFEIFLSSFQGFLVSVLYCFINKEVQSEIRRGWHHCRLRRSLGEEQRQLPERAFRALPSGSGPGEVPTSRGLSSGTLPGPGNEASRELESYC
Description: [125I]-GIP binding, SPA with WGA beads, 0.1% bacitracin. Conditions: geometric mean, read-out: hGIPR Ki. In a few lines:
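Ki values are geometric means (SEM, n independent days), derived from four-parameter nonlinear regression of IC50. Membranes came from hGIPR-expressing CHO cells.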

Test [2] deals with T2, human GLP-1R (Homo sapiens, UniProt P43220).
T2 construct: expressed in transfected cells; crude membranes
T2 sequence (P43220 24-463): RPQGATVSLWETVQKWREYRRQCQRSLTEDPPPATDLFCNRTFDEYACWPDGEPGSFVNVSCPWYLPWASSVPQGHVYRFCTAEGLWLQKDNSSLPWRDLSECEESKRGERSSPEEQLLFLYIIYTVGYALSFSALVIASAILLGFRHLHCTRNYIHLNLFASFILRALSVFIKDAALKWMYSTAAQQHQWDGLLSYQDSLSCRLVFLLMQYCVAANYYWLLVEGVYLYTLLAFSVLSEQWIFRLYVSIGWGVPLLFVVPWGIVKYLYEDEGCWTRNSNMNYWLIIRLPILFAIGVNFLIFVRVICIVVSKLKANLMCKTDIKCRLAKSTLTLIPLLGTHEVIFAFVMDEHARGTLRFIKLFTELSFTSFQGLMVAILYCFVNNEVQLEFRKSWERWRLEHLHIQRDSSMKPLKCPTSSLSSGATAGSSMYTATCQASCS
Description: [125I]-GLP-1 binding, SPA with WGA beads, 0.1% bacitracin. The settings on record: geometric mean, read-out: hGLP1R Ki. In a few lines: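 Binding buffer was 25 mM HEPES pH 7.4 with 2.5 mM CaCl2, 1 mM MgCl2, 0.1% (w/v) bacitracin, 0.003% Tween-20 and EDTA-free protease inhibitors. Four-parameter regression gave IC50, converted to Ki (geometric mean, SEM, n independent days).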

Test [3] has as its target T3, human GcgR (Homo sapiens, UniProt P47871).
T3 construct: expressed in transfected cells; crude membranes
Description: [125I]-Glucagon binding, SPA with WGA beads, 0.1% bacitracin. The settings on record: geometric mean, read-out: hGcgR Ki. In a few lines: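 SPA competition binding with WGA beads on crude membranes from HEK293 cells stably expressing hGcgR. Buffer: 25 mM HEPES pH 7.4, 2.5 mM CaCl2, 1 mM MgCl2, 0.1% bacitracin, 0.003% Tween-20; 10-point 3-fold dilutions, NSB with 1 μM Gcg.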

Each structure is given as a SMILES string. *1 amine or outer side, *2 acyl side, *3 side chain or, on linkers, in order; H or OH if unused. Where a SMILES comes first, the peptide text is derived from it. Side-chain parts run from the residue outwards. [ ]: non-standard residue; d: D form. The star is where a group is joined. C20 diacid = O=C(O)CCCCCCCCCCCCCCCCCCC(=O)*; C18 diacid = O=C(O)CCCCCCCCCCCCCCCCC(=O)*; αMePhe(2-F) = C[C@](N)(Cc1ccccc1F)C(=O)O; γGlu = O=C(O)[C@H](CCC(=O)[*:2])N[*:1]; αMeY = C[C@](N)(Cc1ccc(O)cc1)C(=O)O; 4Pal = N[C@@H](Cc1ccncc1)C(=O)O; αMeL = CC(C)C[C@](C)(N)C(=O)O; Iva = CC[C@](C)(N)C(=O)O; AEEA = NCCOCCOCC(=O)O; Aib = CC(C)(N)C(=O)O

T3 sequence (P47871 26-477): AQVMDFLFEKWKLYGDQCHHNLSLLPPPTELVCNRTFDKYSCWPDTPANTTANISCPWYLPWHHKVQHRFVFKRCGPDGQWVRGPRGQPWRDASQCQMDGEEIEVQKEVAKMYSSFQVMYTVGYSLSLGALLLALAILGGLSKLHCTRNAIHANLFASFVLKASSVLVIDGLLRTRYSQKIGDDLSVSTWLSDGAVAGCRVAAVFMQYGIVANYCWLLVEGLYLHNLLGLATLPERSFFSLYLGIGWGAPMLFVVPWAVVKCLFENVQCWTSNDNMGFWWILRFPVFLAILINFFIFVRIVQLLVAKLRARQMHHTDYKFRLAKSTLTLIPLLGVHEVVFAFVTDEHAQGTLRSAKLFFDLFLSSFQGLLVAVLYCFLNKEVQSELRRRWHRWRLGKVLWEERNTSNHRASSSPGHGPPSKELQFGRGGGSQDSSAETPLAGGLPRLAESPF

By Ki is commonly meant the dissociation constant of the complex between target and ligand, obtained from inhibition or displacement. Take `CC[C@H](C)[C@H](NC(=O)[C@H](CCCCN)NC(=O)[C@H](CC(=O)O)NC(=O)[C@H](CC(C)C)NC(=O)[C@](C)(CC(C)C)NC(=O)[C@@H](NC(=O)[C@H](CO)NC(=O)[C@H](Cc1ccc(O)cc1)NC(=O)[C@H](CC(=O)O)NC(=O)[C@H](CO)NC(=O)[C@@H](NC(=O)[C@H](Cc1ccccc1)NC(=O)[C@@H](NC(=O)CNC(=O)[C@H](CCC(=O)O)NC(=O)C(C)(C)NC(=O)[C@@H](N)Cc1ccc(O)cc1)[C@@H](C)O)[C@@H](C)CC)[C@@H](C)CC)C(=O)N[C@@H](Cc1c[nH]cn1)C(=O)N[C@@H](CCC(N)=O)C(=O)NC(C)(C)C(=O)N[C@@H](CC(=O)O)C(=O)N[C@@H](Cc1ccccc1)C(=O)N[C@H](C(=O)N[C@@H](CCC(=O)O)C(=O)N[C@@H](Cc1ccncc1)C(=O)N[C@@H](CCCCNC(=O)COCCOCCNC(=O)COCCOCCNC(=O)CC[C@H](NC(=O)CCCCCCCCCCCCCCCCC(=O)O)C(=O)O)C(=O)N[C@@H](CC(C)C)C(=O)N[C@@H](CCC(=O)O)C(=O)NCC(=O)NCC(=O)N1CCC[C@H]1C(=O)N[C@@H](CO)C(=O)N[C@@H](CO)C(=O)NCC(=O)N[C@@H](C)C(=O)N1CCC[C@H]1C(=O)N1CCC[C@H]1C(=O)N1CCC[C@H]1C(=O)N[C@@H](CO)C(N)=O)C(C)C` [Example 110] (H-Y[Aib]EGTFISDYSI[αMeL]LDKIHQ[Aib]DFVE[4Pal]K([AEEA-AEEA-γGlu-C18 diacid])LEGGPSSGAPPPS-NH2): the Ki in test [1] was 0.339 nM; in test [2], > 908 nM; in test [3], > 960 nM.
Regarding `CC[C@H](C)[C@H](NC(=O)[C@H](CO)NC(=O)[C@H](Cc1ccc(O)cc1)NC(=O)[C@H](CC(=O)O)NC(=O)[C@H](CO)NC(=O)[C@@H](NC(=O)[C@H](Cc1ccccc1)NC(=O)[C@@H](NC(=O)CNC(=O)[C@H](CCC(=O)O)NC(=O)[C@@H](C)NC(=O)[C@@H](N)Cc1ccc(O)cc1)[C@@H](C)O)[C@@H](C)CC)C(=O)N[C@@H](CC(C)C)C(=O)N[C@@H](CC(C)C)C(=O)N[C@@H](CC(=O)O)C(=O)N[C@@H](CCCCN)C(=O)N[C@@H](CCCCNC(=O)COCCOCCNC(=O)COCCOCCNC(=O)CC[C@H](NC(=O)CCCCCCCCCCCCCCCCCCC(=O)O)C(=O)O)C(=O)N[C@@H](C)C(=O)N[C@@H](CCC(N)=O)C(=O)N[C@@H](CCC(N)=O)C(=O)N[C@@H](CC(=O)O)C(=O)N[C@@H](Cc1ccccc1)C(=O)N[C@H](C(=O)N[C@@H](CC(N)=O)C(=O)N[C@@H](Cc1c[nH]c2ccccc12)C(=O)N[C@@H](CC(C)C)C(=O)N[C@@H](CC(C)C)C(=O)N[C@@H](C)C(=O)N[C@@H](CCC(N)=O)C(=O)NCC(=O)N1CCC[C@H]1C(=O)N[C@@H](CO)C(=O)N[C@@H](CO)C(=O)NCC(=O)N[C@@H](C)C(=O)N1CCC[C@H]1C(=O)N1CCC[C@H]1C(=O)N1CCC[C@H]1C(=O)N[C@@H](CO)C(N)=O)C(C)C` [Example 11] (H-Y[dA]EGTFISDYSILLDKK([AEEA-AEEA-γGlu-C20 diacid])AQQDFVNWLLAQGPSSGAPPPS-NH2), the Ki in test [1] turned out to be 0.0584 nM; in test [2], 85.9 nM; in test [3], 163 nM.
Taken in the same sequence, the figures for `CC[C@H](C)[C@H](NC(=O)[C@H](CO)NC(=O)[C@H](Cc1ccc(O)cc1)NC(=O)[C@H](CC(=O)O)NC(=O)[C@H](CO)NC(=O)[C@@H](NC(=O)[C@H](Cc1ccccc1)NC(=O)[C@@H](NC(=O)CNC(=O)[C@H](CCC(=O)O)NC(=O)[C@@H](C)NC(=O)[C@@H](N)Cc1ccc(O)cc1)[C@@H](C)O)[C@@H](C)CC)C(=O)N[C@@H](CC(C)C)C(=O)N[C@@H](CC(C)C)C(=O)N[C@@H](CC(=O)O)C(=O)N[C@@H](CCCCN)C(=O)N[C@@H](CCCCNC(=O)COCCOCCNC(=O)COCCOCCNC(=O)CC[C@H](NC(=O)CCCCCCCCCCCCCCCCCCC(=O)O)C(=O)O)C(=O)N[C@@H](Cc1c[nH]cn1)C(=O)N[C@@H](CCC(N)=O)C(=O)N[C@@H](CCC(N)=O)C(=O)N[C@@H](CC(=O)O)C(=O)N[C@@H](Cc1ccccc1)C(=O)N[C@H](C(=O)N[C@@H](CC(N)=O)C(=O)N[C@@H](Cc1c[nH]c2ccccc12)C(=O)N[C@@H](CC(C)C)C(=O)N[C@@H](CC(C)C)C(=O)N[C@@H](C)C(=O)NCC(=O)NCC(=O)N1CCC[C@H]1C(=O)N[C@@H](CO)C(=O)N[C@@H](CO)C(=O)NCC(=O)N[C@@H](C)C(=O)N1CCC[C@H]1C(=O)N1CCC[C@H]1C(=O)N1CCC[C@H]1C(=O)N[C@@H](CO)C(N)=O)C(C)C` [Example 10] (H-Y[dA]EGTFISDYSILLDKK([AEEA-AEEA-γGlu-C20 diacid])HQQDFVNWLLAGGPSSGAPPPS-NH2) were 0.159 nM, 60.7 nM and > 230 nM.
As for `CC[C@H](C)[C@H](NC(=O)[C@H](Cc1ccccc1)NC(=O)[C@@H](NC(=O)CNC(=O)[C@H](CCC(=O)O)NC(=O)C(C)(C)NC(=O)[C@@H](N)Cc1ccc(O)cc1)[C@@H](C)O)C(=O)N[C@@H](CO)C(=O)N[C@@H](CC(=O)O)C(=O)N[C@@H](Cc1ccc(O)cc1)C(=O)N[C@@H](CO)C(=O)N[C@H](C(=O)N[C@@](C)(CC(C)C)C(=O)N[C@@H](CC(C)C)C(=O)N[C@@H](CC(=O)O)C(=O)N[C@@H](CCCCN)C(=O)N[C@@H](CCCCNC(=O)COCCOCCNC(=O)COCCOCCNC(=O)CC[C@H](NC(=O)CCCCCCCCCCCCCCCCCCC(=O)O)C(=O)O)C(=O)N[C@@H](Cc1c[nH]cn1)C(=O)N[C@@H](CCC(N)=O)C(=O)NC(C)(C)C(=O)N[C@@H](CC(=O)O)C(=O)N[C@@H](Cc1ccccc1)C(=O)N[C@H](C(=O)N[C@@H](CCC(=O)O)C(=O)N[C@@](C)(Cc1ccc(O)cc1)C(=O)N[C@@H](CC(C)C)C(=O)N[C@@H](CC(C)C)C(=O)N[C@@H](CCC(=O)O)C(=O)N[C@@H](C)C(=O)NCC(=O)N1CCC[C@H]1C(=O)N[C@@H](CO)C(=O)N[C@@H](CO)C(=O)NCC(=O)N[C@@H](C)C(=O)N1CCC[C@H]1C(=O)N1CCC[C@H]1C(=O)N1CCC[C@H]1C(=O)N[C@@H](CO)C(N)=O)C(C)C)[C@@H](C)CC` [Example 90] (H-Y[Aib]EGTFISDYSI[αMeL]LDKK([AEEA-AEEA-γGlu-C20 diacid])HQ[Aib]DFVE[αMeY]LLEAGPSSGAPPPS-NH2), the Ki in test [1] came to 0.129 nM; in test [2], 102 nM; in test [3] it was 112 nM.
On to `CC[C@H](C)[C@H](NC(=O)[C@H](CO)NC(=O)[C@H](Cc1ccc(O)cc1)NC(=O)[C@H](CC(=O)O)NC(=O)[C@H](CO)NC(=O)[C@@H](NC(=O)[C@](C)(Cc1ccccc1F)NC(=O)[C@@H](NC(=O)CNC(=O)[C@H](CCC(=O)O)NC(=O)C(C)(C)NC(=O)[C@@H](N)Cc1ccc(O)cc1)[C@@H](C)O)[C@@H](C)CC)C(=O)N[C@@H](C)C(=O)N[C@@H](CC(C)C)C(=O)N[C@@H](CC(=O)O)C(=O)N[C@@H](CCCCN)C(=O)N[C@H](C(=O)N[C@@H](Cc1c[nH]cn1)C(=O)N[C@@H](CCC(N)=O)C(=O)NC(C)(C)C(=O)N[C@@H](CC(=O)O)C(=O)N[C@@H](Cc1ccccc1)C(=O)N[C@H](C(=O)N[C@@H](CCC(=O)O)C(=O)N[C@@H](Cc1ccc(O)cc1)C(=O)N[C@@H](CCCCNC(=O)COCCOCCNC(=O)COCCOCCNC(=O)CC[C@H](NC(=O)CCCCCCCCCCCCCCCCCCC(=O)O)C(=O)O)C(=O)N[C@@H](CC(C)C)C(=O)N[C@@H](CCC(=O)O)C(=O)NCC(=O)NCC(=O)N1CCC[C@H]1C(=O)N[C@@H](CO)C(=O)N[C@@H](CO)C(=O)NCC(=O)N[C@@H](C)C(=O)N1CCC[C@H]1C(=O)N1CCC[C@H]1C(=O)N1CCC[C@H]1C(=O)N[C@@H](CO)C(N)=O)C(C)C)[C@@H](C)CC` [Example 99] (H-Y[Aib]EGT[αMePhe(2-F)]ISDYSIALDKIHQ[Aib]DFVEYK([AEEA-AEEA-γGlu-C20 diacid])LEGGPSSGAPPPS-NH2), for which the inhibition constant Ki is 0.0341 nM in test [1], > 901 nM in test [2] and 174 nM in test [3].
For the compound `CC[C@H](C)[C@H](NC(=O)[C@H](CO)NC(=O)[C@H](Cc1ccc(O)cc1)NC(=O)[C@H](CC(=O)O)NC(=O)[C@H](CO)NC(=O)[C@@H](NC(=O)[C@](C)(CC)NC(=O)[C@@H](NC(=O)CNC(=O)[C@H](CCC(=O)O)NC(=O)C(C)(C)NC(=O)[C@@H](N)Cc1ccc(O)cc1)[C@@H](C)O)[C@@H](C)CC)C(=O)N[C@@](C)(CC(C)C)C(=O)N[C@@H](CC(C)C)C(=O)N[C@@H](CC(=O)O)C(=O)N[C@@H](CCCCN)C(=O)N[C@@H](CCCCNC(=O)COCCOCCNC(=O)COCCOCCNC(=O)CC[C@H](NC(=O)CCCCCCCCCCCCCCCCCCC(=O)O)C(=O)O)C(=O)N[C@@H](Cc1c[nH]cn1)C(=O)N[C@@H](CCC(N)=O)C(=O)NC(C)(C)C(=O)N[C@@H](CC(=O)O)C(=O)N[C@@H](Cc1ccccc1)C(=O)N[C@H](C(=O)N[C@@H](CCC(=O)O)C(=O)N[C@@H](Cc1ccncc1)C(=O)N[C@@H](CC(C)C)C(=O)N[C@@H](CC(C)C)C(=O)N[C@@H](CCC(=O)O)C(=O)N[C@H](C(=O)NCC(=O)N1CCC[C@H]1C(=O)N[C@@H](CO)C(=O)N[C@@H](CO)C(=O)NCC(=O)N[C@@H](C)C(=O)N1CCC[C@H]1C(=O)N1CCC[C@H]1C(=O)N1CCC[C@H]1C(=O)N[C@@H](CO)C(N)=O)[C@@H](C)O)C(C)C` [Example 75] (H-Y[Aib]EGT[Iva]ISDYSI[αMeL]LDKK([AEEA-AEEA-γGlu-C20 diacid])HQ[Aib]DFVE[4Pal]LLETGPSSGAPPPS-NH2), the values for the Ki in test [1], in test [2] and in test [3] were 0.0626 nM, > 902 nM and > 958 nM, respectively.

For the origin of these results see patent US12723063B2, “GIPR-agonist compounds” (Eli Lilly and Company, priority 2019, dated 2026).
